Assay results: patent US8822691B2, “Pesticidal carboxamides” (Bayer CropScience AG, priority 2009, dated 2014)
Several values for one entry are separate records, joined by “and”; a condition that tells them apart may be missing. Identical values can stand only once.

Assays:
Assay type in all cases: in vivo
Boophilus microplus = assay: Boophilus microplus-test (injection); conditions: Rhipicephalus microplus, 168 h, read-out: activity (mortality in %; 100% means that all eggs are infertile)
Procedure: (§1) Solvent: dimethyl sulfoxide
To produce a suitable preparation of active compound, 10 mg of active compound are dissolved in 0.5 ml solvent, and the concentrate is diluted with solvent to the desired concentration. Five adult engorged female ticks (Boophilus microplus) are injected with 1 μl compound solution into the abdomen. Ticks are transferred into replica plates and incubated in a climate chamber for a period of time. Egg deposition of fertile eggs is monitored.
After 7 days mortality in % is determined. 100% means that all eggs are infertile; 0% means that all eggs are fertile.

Aulacophora femoralis = assay: Test against cucurbit leaf beetle (Aulacophora femoralis), leaf dip; conditions: active compound concentration of 500 ppm, second instar larvae on cucumber leaves, after 7 days; for pest or weed control at 500 ppm: Aulacophora, foliar, 168 h, read-out: insecticidal activity
Procedure: (§2) Unless not mentioned otherwise, the test solutions were prepared as follows:
(§3) Containing as solvent: Dimethylformamide, 3 parts by weight; and as emulsifier: Polyoxyethylene alkyl phenyl ether, 1 part by weight
(§4) To prepare the test solution, 1 part by weight of an active compound is mixed with the above-mentioned amount of solvent containing the above-mentioned amount of emulsifier, and the mixture is diluted with water to the desired concentration.
Leaves of cucumber were immersed in the test solution at the appropriate concentration, and the leaves were dried in air. The leaves were then put in a plastic cup containing sterilized black soil and five Aulacophora femoralis at second instar larvae were released in the cup. The cups were placed in a temperature-controlled chamber at 25° C. After 7 days, the number of dead larvae was counted, and thus the insecticidal activity was calculated. An insecticidal activity of 100% means that all larvae were killed, whereas an insecticidal activity of 0% means that no larva was killed.

Lucilia cuprina = Lucilia cuprina (48 h) larval test; conditions: for mortality at 100 ppm: Lucilia cuprina, 48 h, read-out: activity (larval mortality)
Procedure: Species: Lucilia cuprina 1st instar larvae (age 24 hrs)
as §1
10 mg active compound are dissolve in 0.5 ml dimethyl sulfoxide. Serial dilutions are made to obtain the desired rates. Approximately 20 Lucilia cuprina 1st instar larvae are transferred into a test tube containing 1 cm^3 of minced horse meat and 0.5 ml aqueous dilution of test compound. After 48 hrs percentage of larval mortality are recorded. 100% efficacy all larvae are killed, % efficacy normally developed larvae after 48 hrs.

Spodoptera litura = assay: Test against tobacco cutworm (Spodoptera litura) larvae, leaf dip; conditions: active compound concentration of 100 ppm, third instar larvae on sweet potato leaves, after 7 days; for pest or weed control at 100 ppm: foliar, 168 h, read-out: insecticidal activity
Procedure: as §2, §3, §4
Leaves of sweet potato were immersed in the test solution at the appropriate concentration, and the leaves were dried in air. The leaves were then placed in a petri dish having a diameter of 9 cm, and ten Spodoptera litura at third instar larvae were released therein. The petri dishes were placed in a temperature-controlled chamber at 25° C. After 2 days and 4 days more sweet potato leaves were added. After 7 days, the number of dead larvae was counted to calculate the insecticidal activity. An insecticidal activity of 100% means that all larvae were killed, whereas an insecticidal activity of 0% means that no larva was killed. In the current test, the results of two petri dishes for each treatment were averaged.

Musca domestica = assay: Musca domestica-test; conditions: for activity (mortality): application rate of 100 ppm, adults, after 2 days; for mortality at 100 ppm: Musca domestica, 48 h, read-out: activity (mortality)
Procedure: as §1
To produce a suitable preparation of active compound, 10 mg of active compound are dissolved in 0.5 ml solvent, and the concentrate is diluted with water to the desired concentration. Prior to the assay, a piece of kitchen sponge is soaked with a mixture of sugar and compound solution and placed into a container. 10 adults (Musca domestica) are placed into the container and closed with a perforated lid. After 2 days mortality in % is determined. 100% means that all the flies have been killed; 0% means that none of the flies have been killed.

Ctenocephalides felis = assay: Ctenocephalides felis-test (CTECFE); conditions: adult unfed fleas, after 2 days; for activity (mortality): application rate of 100 ppm in cattle blood; for mortality at 100 ppm: Ctenocephalides felis, in Bos taurus, 48 h, read-out: activity (mortality), application rate of 100 ppm in cattle blood
Procedure: as §1
To produce a suitable preparation of active compound, 10 mg of active compound are dissolved in 0.5 ml solvent, and the concentrate is diluted with cattle blood to the desired concentration. Approximately 20 adult unfed (Ctenocepahlides felis) are placed in flea chambers. The blood chamber, sealed with parafilm on the bottom, are filled with cattle blood supplied with compound solution and placed on top of the flea chamber, so that the fleas are able to suck the blood. The blood chamber is heated to 37° C. whereas the flea chamber is kept at room temperature. After 2 days mortality in % is determined. 100% means that all the fleas have been killed; 0% means that none of the fleas have been killed.

Tetranychus urticae = assay: Test against two-spotted spider mite (Tetranychus urticae), spray; conditions: active compound concentration of 500 ppm, adult mites on kidney bean, after 7 days; for pest or weed control at 500 ppm: Tetranychus urticae, 168 h, read-out: acaricidal activity
Procedure: as §2, §3, §4
50 to 100 adult mites of Tetranychus urticae were inoculated to leaves of kidney bean at two-leaf stage planted in a pot of 6 cm in diameter. After one day, test solution at the appropriate concentration was sprayed thereon in a sufficient amount using a spray gun. After the spraying, the plant pot was placed inside a greenhouse, and after 7 days, the acaricidal activity was calculated. An acaricidal activity of 100% means that all mites were killed, whereas an acaricidal activity of 0% means that no mite was killed.

Structure (SMILES) | mortality at 0.02 mg (Boophilus microplus) [%] | pest or weed control at 500 ppm (Aulacophora femoralis) [%] | mortality at 100 ppm (Lucilia cuprina) [%] | pest or weed control at 100 ppm (Spodoptera litura) [%] | insecticidal activity (Aulacophora femoralis) [%] | activity (mortality) (Ctenocephalides felis) | insecticidal activity (Spodoptera litura) [%] | acaricidal activity (Tetranychus urticae) [%] | also measured
Cc1cc(C(F)(C(F)(F)F)C(F)(F)F)cc(C)c1NC(=O)c1cc(Cl)c2ncc(Cl)cc2c1 [2-214, 3,8-dichloro-N-[4-(1,1,1,2,3,3,3-heptafluoropropan-2-yl)-2,6-dimethylphenyl]quinoline-6-carboxamide] | 100 | 100 | 90 | 100 | – | – | – | – | –
O=C(Nc1c(Br)cc(C(F)(C(F)(F)F)C(F)(F)C(F)(F)F)cc1Br)c1ccc2ncccc2c1 (stereo not shown) [2-108] | – | – | – | – | 100 | 80% and 95% | 100 | – | activity (mortality) (Musca domestica): 80%
O=C(Nc1c(I)cc(C(F)(C(F)(F)F)C(F)(F)C(F)(F)F)cc1OC(F)F)c1ccc2ncccc2c1 (stereo not shown) [Compound No. 2-174, N-[2-(difluoromethoxy)-6-iodo-4-(1,1,1,2,3,3,4,4,4-nonafluorobutan-2-yl)phenyl]quinoline-6-carboxamide] | 100 | 100 | 100 | 100 | – | – | – | – | mortality at 100 ppm (Musca domestica): 100%; mortality at 100 ppm (Ctenocephalides felis): 100%; pest or weed control at 500 ppm (Tetranychus urticae): 100%
Cc1cc(C(F)(C(F)(F)F)C(F)(F)F)cc(C)c1NC(=O)c1ccc2nc(C#N)ccc2c1 [Compound No. 2-20, 2-cyano-N-[4-(1,1,1,2,3,3,3-heptafluoropropan-2-yl)-2,6-dimethylphenyl]quinoline-6-carboxamide] | 100 | 100 | 100 | 100 | – | – | – | – | mortality at 100 ppm (Musca domestica): 95%; mortality at 100 ppm (Ctenocephalides felis): 100%
Cc1cc(C(F)(C(F)(F)F)C(F)(F)F)cc(Br)c1NC(=O)c1ccc2nc(C#N)ccc2c1 [2-40] | – | – | – | – | 100 | 95% | 100 | 100 | –
CCc1cc(C(F)(C(F)(F)F)C(F)(F)C(F)(F)F)cc(C)c1NC(=O)c1ccc2nc(C#N)ccc2c1 (stereo not shown) [2-90] | – | – | – | – | 100 | – | 100 | 100 | activity (mortality) (Musca domestica): 80%
CCc1cc(C(F)(C(F)(F)F)C(F)(F)C(F)(F)F)cc(C)c1NC(=O)c1ccc2ncccc2c1 (stereo not shown) [2-88] | – | – | – | – | 100 | 95% | 100 | – | –
Cc1cc(C(F)(C(F)(F)F)C(F)(F)F)cc(C)c1NC(=O)c1ccc2ncc(Cl)cc2c1 [Compound No. 2-213, 3-chloro-N-[4-(1,1,1,2,3,3,3-heptafluoropropan-2-yl)-2,6-dimethylphenyl]quinoline-6-carboxamide] | 100 | 100 | 100 | 100 | – | – | – | – | mortality at 100 ppm (Musca domestica): 80%
O=C(Nc1c(Br)cc(C(F)(C(F)(F)F)C(F)(F)Br)cc1OC(F)F)c1ccc2c(ccc[n+]2[O-])c1 (stereo not shown) [Compound No. 2-202, N-[2-bromo-4-(1-bromo-1,1,2,3,3,3-hexafluoropropan-2-yl)-6-(difluoromethoxy)phenyl]quinoline-6-carboxamide 1-oxide] | 100 | 100 | 100 | – | – | – | – | – | mortality at 100 ppm (Musca domestica): 100%; mortality at 100 ppm (Ctenocephalides felis): 95%; pest or weed control at 500 ppm (Tetranychus urticae): 100%
CCc1cc(C(F)(C(F)(F)F)C(F)(F)F)cc(Br)c1NC(=O)c1ccc2nc(C#N)ccc2c1 [2-49] | – | – | – | – | 100 | 95% | 100 | 100 | –
Cc1cc(C(F)(C(F)(F)F)C(F)(F)Br)cc(C)c1NC(=O)c1ccc2nc(C#N)ccc2c1 (stereo not shown) [2-191] | – | – | – | – | 100 | – | 100 | 100 | –
CCc1cc(C(F)(C(F)(F)F)C(F)(F)F)cc(C)c1NC(=O)c1ccc2nc(Cl)ccc2c1 [2-29] | – | – | – | – | 100 | – | 100 | 100 | –
N#Cc1ccc2cc(C(=O)Nc3c(Br)cc(C(F)(F)F)cc3Br)ccc2n1 [2-3] | – | – | – | – | 100 | 90% | – | – | activity (larval mortality) (Lucilia cuprina; application rate of 100 ppm, 1st instar larvae, after 48 hrs): 80%
N#Cc1ccc2cc(C(=O)Nc3c(Br)cc(C(F)(C(F)(F)F)C(F)(F)C(F)(F)F)cc3Br)ccc2n1 (stereo not shown) [2-110] | – | – | – | – | 100 | – | 100 | 100 | –
N#Cc1ccc2cc(C(=O)Nc3c(Br)cc(C4(F)C(F)(F)C(F)(F)C(F)(F)C(F)(F)C4(F)F)cc3Br)ccc2n1 [2-133] | – | – | – | – | 100 | 90% | 100 | 100 | –
O=C(Nc1c(Br)cc(C(F)(C(F)(F)F)C(F)(F)Br)cc1OC(F)F)c1ccc2ncccc2c1 (stereo not shown) [Compound No. 2-201, N-[2-bromo-4-(1-bromo-1,1,2,3,3,3-hexafluoropropan-2-yl)-6-(difluoromethoxy)phenyl]quinoline-6-carboxamide] | 100 | 100 | 100 | 100 | – | – | – | – | mortality at 100 ppm (Musca domestica): 100%; mortality at 100 ppm (Ctenocephalides felis): 100%; pest or weed control at 500 ppm (Tetranychus urticae): 100%
CCc1cc(C(F)(C(F)(F)F)C(F)(F)C(F)(F)F)cc(C)c1NC(=O)c1ccc2nc(C#N)cc(Br)c2c1 (stereo not shown) [Compound No. 2-269, 4-bromo-2-cyano-N-[2-ethyl-6-methyl-4-(1,1,1,2,3,3,4,4,4-nonafluorobutan-2-yl)phenyl]quinoline-6-carboxamide] | – | 100 | – | 100 | – | – | – | – | pest or weed control at 500 ppm (Tetranychus urticae): 100%
Cc1cc(C(F)(C(F)(F)F)C(F)(F)C(F)(F)F)cc(C)c1NC(=O)c1ccc2nc(C#N)ccc2c1 (stereo not shown) [2-87] | – | – | – | – | 100 | – | 100 | 100 | –
